Measurements reported in US20090023721A1, “Novel Substituted Tetracyclic Tetrahydrofuran, Pyrrolidine and Tetrahydrothiophene Derivatives and Their Use as a Medicament” (priority 2005, published 2009).

Tests used:
[1] = target: T1, human cloned 5-HT2A receptor, expressed in L929 cells (Homo sapiens, UniProt P28223); test: In vitro radioligand binding affinity for 5-HT2A receptor ([125I]R91150); conditions: human cloned 5-HT2A receptor in L929 cells, [125I]R91150; for IC50: read-out: h-5HT2A (converted)
T1 construct: expressed in transfected cells; host or cells: L929 cells
T1 sequence (P28223 whole entry): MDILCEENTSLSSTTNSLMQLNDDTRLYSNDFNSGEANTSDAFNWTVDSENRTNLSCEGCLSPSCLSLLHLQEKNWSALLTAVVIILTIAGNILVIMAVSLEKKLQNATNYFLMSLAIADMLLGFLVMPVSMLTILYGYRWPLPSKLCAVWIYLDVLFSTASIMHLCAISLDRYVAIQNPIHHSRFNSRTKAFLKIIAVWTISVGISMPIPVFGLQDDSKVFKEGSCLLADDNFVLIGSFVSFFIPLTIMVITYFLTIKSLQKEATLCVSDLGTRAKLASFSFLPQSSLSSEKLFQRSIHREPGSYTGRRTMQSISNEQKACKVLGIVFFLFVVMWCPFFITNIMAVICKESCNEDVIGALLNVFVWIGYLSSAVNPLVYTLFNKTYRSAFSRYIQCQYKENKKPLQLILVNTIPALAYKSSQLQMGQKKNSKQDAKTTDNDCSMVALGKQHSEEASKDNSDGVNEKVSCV
Description: The interaction of the compounds of Formula (I) with 5-HT2A and 5-HT2C receptors was assessed in in vitro radioligand binding experiments. In general, a low concentration of a radioligand with a high binding affinity for the receptor is incubated with a sample of a tissue preparation enriched in a particular receptor (1 to 5 mg tissue) in a buffered medium (0.2 to 5 ml). During the incubation, the radioligands bind to the receptor. When equilibrium of binding is reached, the receptor bound radioactivity is separated from the non-bound radioactivity, and the receptor bound activity is counted. The interaction of the test compounds with the receptors is assessed in competition binding experiments. Various concentrations of the test compound are added to the incubation mixture containing the tissue preparation and the radioligand. Binding of the radioligand will be inhibited by the test compound in proportion to its binding affinity and its concentration. The affinities of the compounds for the 5-HT2 receptors were measured by means of radioligand binding studies conducted with: (a) human cloned 5-HT2A receptor, expressed in L929 cells using [^125I]R91150 as radioligand and (b) human cloned 5-HT2C receptor, expressed in CHO cells using [^3H]mesulergine as radioligand.

NET = target: T2, NET (Rattus norvegicus, UniProt Q9WTR4); test: In vitro determination of NET reuptake inhibition ([3H]Nixosetine binding, rat brain cortex membranes)
T2 construct: Cortex from rat brain was collected and homogenised; from tissue; host or cells: rat brain cortex membranes
T2 sequence (Q9WTR4 1-597): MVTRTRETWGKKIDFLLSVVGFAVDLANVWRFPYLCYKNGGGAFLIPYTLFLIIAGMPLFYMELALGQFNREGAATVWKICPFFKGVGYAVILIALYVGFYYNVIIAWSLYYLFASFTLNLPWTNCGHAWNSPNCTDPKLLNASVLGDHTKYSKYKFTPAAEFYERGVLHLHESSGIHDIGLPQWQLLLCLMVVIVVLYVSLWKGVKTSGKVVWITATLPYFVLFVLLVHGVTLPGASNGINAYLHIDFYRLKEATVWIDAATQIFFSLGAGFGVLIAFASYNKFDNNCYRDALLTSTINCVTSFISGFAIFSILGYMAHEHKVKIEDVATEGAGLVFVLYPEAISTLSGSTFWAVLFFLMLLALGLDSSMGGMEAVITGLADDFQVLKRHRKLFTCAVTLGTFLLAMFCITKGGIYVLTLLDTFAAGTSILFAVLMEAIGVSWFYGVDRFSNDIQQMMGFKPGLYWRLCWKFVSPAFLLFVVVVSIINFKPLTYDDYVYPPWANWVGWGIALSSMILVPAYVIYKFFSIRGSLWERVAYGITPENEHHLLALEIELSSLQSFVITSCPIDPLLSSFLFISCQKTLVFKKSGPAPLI
Description: Cortex from rat brain was collected and homogenised using an Ultra-Turrax T25 and a Dual homogeniser in ice-cold homogenising buffer containing Tris, NaCl and KCl (50 mM, 120 mM and 5 mM, respectively, pH 7.4) prior to dilution to an appropriate protein concentration optimised for specific and non-specific binding. […] Membrane-bound activity was detected by filtration through a Packard Filtermate harvester onto GF/B Unifilterplates, washed with ice-cold Tris-HCl buffer, containing NaCl and KCl (50 mM, 120 mM and 4 mM; pH 7.4; 6×0.5 ml). Filters were allowed to dry for 24 h before adding scintillation fluid. Scintillation fluid was allowed to saturate filters for 24 h before counting in a Topcount scintillation counter. Percentage specific bound and competition binding curves were calculated using S-Plus software (Insightful).

[2] = target: T3, human Dopamine D2L receptor (Homo sapiens, UniProt P14416); test: In vitro binding affinity for human D2L receptor ([3H]Spiperone); conditions: human D2L receptor-transfected CHO cell membranes, [3H]Spiperone; for IC50: read-out: h-D2L (converted)
T3 construct: expressed in transfected cells; host or cells: CHO cells (frozen membranes)
T3 sequence (P14416 whole entry): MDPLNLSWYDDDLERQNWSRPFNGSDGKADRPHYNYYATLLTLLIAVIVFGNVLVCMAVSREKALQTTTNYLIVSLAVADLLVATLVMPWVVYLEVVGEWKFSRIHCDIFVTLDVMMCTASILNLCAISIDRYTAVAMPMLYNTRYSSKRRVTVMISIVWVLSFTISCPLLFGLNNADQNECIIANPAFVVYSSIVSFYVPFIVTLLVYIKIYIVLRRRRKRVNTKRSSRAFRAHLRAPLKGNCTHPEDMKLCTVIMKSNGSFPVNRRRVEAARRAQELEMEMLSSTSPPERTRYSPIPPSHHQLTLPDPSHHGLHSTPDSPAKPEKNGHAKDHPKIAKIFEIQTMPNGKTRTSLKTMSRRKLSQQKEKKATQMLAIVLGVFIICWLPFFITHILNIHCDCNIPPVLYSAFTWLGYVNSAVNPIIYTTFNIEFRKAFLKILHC
Description: Frozen membranes of human Dopamine D2L receptor-transfected CHO cells were thawed, briefly homogenised using an Ultra-Turrax T25 homogeniser and diluted in Tris-HCl assay buffer containing NaCl, CaCl2, MgCl2, KCl (50, 120, 2, 1, and 5 mM respectively, adjusted to pH 7.7 with HCl) to an appropriate protein concentration optimised for specific and non-specific binding. Radioligand [^3H]Spiperone (NEN, specific activity ˜70 Ci/mmol) was diluted in assay buffer at a concentration of 2 nmol/L. Prepared radioligand (50 μl), along with 50 μl of either the 10% DMSO control, Butaclamol (10-6 mol/l final concentration), or compound of interest, was then incubated (30 min, 37° C.) with 400 μl of the prepared membrane solution. Membrane-bound activity was filtered through a Packard Filtermate harvester onto GF/B Unifilterplates and washed with ice-cold Tris-HCl buffer (50 mM; pH 7.7; 6×0.5 ml). Filters were allowed to dry before adding scintillation fluid and counting in a Topcount scintillation counter. Percentage specific bound and competition binding curves were calculated using S-Plus software (Insightful).

[3] = target: T4, human cloned 5-HT2C receptor, expressed in CHO cells (Homo sapiens, UniProt P28335); test: In vitro radioligand binding affinity for 5-HT2C receptor ([3H]mesulergine); conditions: human cloned 5-HT2C receptor in CHO cells, [3H]mesulergine; for IC50: read-out: h-5HT2C (converted)
T4 construct: expressed in transfected cells; host or cells: CHO cells
T4 sequence (P28335 33-458): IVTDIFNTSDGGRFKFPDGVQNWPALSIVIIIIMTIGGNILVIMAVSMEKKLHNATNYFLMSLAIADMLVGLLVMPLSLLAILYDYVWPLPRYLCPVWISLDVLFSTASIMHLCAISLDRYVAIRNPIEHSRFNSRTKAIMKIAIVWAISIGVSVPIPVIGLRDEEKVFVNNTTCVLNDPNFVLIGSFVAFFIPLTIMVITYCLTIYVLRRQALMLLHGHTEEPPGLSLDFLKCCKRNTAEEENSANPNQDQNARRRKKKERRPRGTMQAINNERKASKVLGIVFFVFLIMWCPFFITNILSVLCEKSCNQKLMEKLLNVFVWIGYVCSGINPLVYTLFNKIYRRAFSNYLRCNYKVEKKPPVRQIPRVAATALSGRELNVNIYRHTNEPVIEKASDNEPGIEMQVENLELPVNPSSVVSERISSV
Description: The interaction of the compounds of Formula (I) with 5-HT2A and 5-HT2C receptors was assessed in in vitro radioligand binding experiments. […] During the incubation, the radioligands bind to the receptor. When equilibrium of binding is reached, the receptor bound radioactivity is separated from the non-bound radioactivity, and the receptor bound activity is counted. The interaction of the test compounds with the receptors is assessed in competition binding experiments. Various concentrations of the test compound are added to the incubation mixture containing the tissue preparation and the radioligand. Binding of the radioligand will be inhibited by the test compound in proportion to its binding affinity and its concentration.

Structure (SMILES) | IC50 [1] [nM] | IC50 (NET) [nM] | IC50 [2] [nM] | IC50 [3] [nM] | h-5HT2A [1] | NET Reuptake Inhibition (NET) | h-D2L [2] | h-5HT2C [3]
CC(=O)N1[C@@H](CN(C)C)C[C@@H]2c3ccccc3Cc3ccc(F)cc3[C@H]21 [36b, [(2R,3aR, 1 2bS)-1-acetyl-11-fluoro-1,2,3,3a,8,12b-hexahydrodibenzo[3,4:6,7]cyclohepta[1,2-b]pyrrol-2-yl]-N,N-dimethylmethanamine] | > 1000 | 3890 | > 1000 | > 1000 |  |  |  | 
CN(C)C[C@H]1C[C@@H]2c3ccccc3Cc3ccc(F)cc3[C@H]2N1C=O [36c] |  |  |  |  | 6.26 | 6.65 | 5.31 | 7.11
CN(C)C[C@H]1C[C@@H]2c3ccccc3Cc3ccc(F)cc3[C@H]2N1 [37a, [(2R,3aR,12bS)-11-fluoro-1,2,3,3a,8,12b-hexahydrodibenzo[3,4:6,7]cyclohepta[1,2-b]-pyrrol-2-yl]-N,N-dimethylmethanamine] | 44.7 | 7.94 | 355 | 50.1 |  |  |  | 
CN1C[C@@H]2C[C@@H]3c4ccccc4Cc4ccc(F)cc4[C@H]3N2C1 [compound 1, (4aS,13bR,14aS)-6-fluoro-2-methyl-1,2,3,4a,9,13b,14,14a-octahydrodibenzo-[3′,4′:6′,7′]cyclohepta[1′,2′:4,5]pyrrolo[1,2-c]imidazole] | 115 | 115 | 2240 | 151 |  |  |  | 
Fc1ccc2c(c1)[C@@H]1[C@H](C[C@H]3CNC(=S)N31)c1ccccc1C2 [compound 3, (4aS,13bR,14aS)-6-fluoro-1,4a,9,13b,14,14a-hexahydrodibenzo-[3′,4′:6′,7′]cyclohepta-[1′,2′:4,5]pyrrolo[1,2-c]imidazole-3(2H)-thione] | > 1000 |  | > 1000 | 240 |  | 5.24 |  | 
CN1CC(=O)N2[C@@H](C[C@@H]3c4ccccc4Cc4ccc(F)cc4[C@H]32)C1 [compound 4, (5aS,14bR,15aS)-7-fluoro-2-methyl-1,2,3,5a,10,14b,15,15a-octahydro-4H-dibenzo [3′,4′:6′,7′]cyclohepta[1′,2′:4,5]pyrrolo[1,2-a]pyrazin-4-one] | > 1000 |  | > 1000 | > 1000 |  | <5 |  | 
CN1C[C@H]2C[C@@H]3c4ccccc4Cc4ccc(F)cc4[C@H]3N2C1=O [compound 7] | > 1000 | 891 | > 1000 | > 1000 |  |  |  | 
CSC1=NC[C@H]2C[C@@H]3c4ccccc4Cc4ccc(F)cc4[C@H]3N12 [compound 9, (4aS,13bR,14aR)-6-fluoro-3-(methylsulfanyl)-1,4a,9,13b,14,14a-hexahydrodibenzo-[3′,4′:6′,7′]cyclohepta[1′,2′:4,5]pyrrolo[1,2-c]imidazole] | > 1000 | 3980 | > 1000 | > 1000 |  |  |  | 
COCC(=O)N1[C@@H](CN(C)C)C[C@@H]2c3ccccc3Cc3ccc(F)cc3[C@H]21 [compound 10, [(2R,3aR,12bS)-11-fluoro-1-(methoxyacetyl)-1,2,3,3a,8,12b-hexahydrodibenzo[3 ,4:6,7]cyclohepta[1,2-b]pyrrol-2-yl]-N,N-dimethylmethanamine] | 692 | 4790 | > 1000 | 427 |  |  |  | 
O=C1NC[C@@H]2C[C@@H]3c4ccccc4Cc4ccc(F)cc4[C@H]3N12 [compound 15, (4aS,13bR,14aS)-6-fluoro-1,4a,9,13b,14,14a-hexahydrodibenzo[3′,4′:6′,7′]cyclohepta-[1′,2′:4,5]pyrrolo[1,2-c]imidazol-3(2H)-one] | 8320 | 2400 | > 10000 | 2340 |  |  |  | 
CN1C[C@@H]2C[C@@H]3c4ccccc4Cc4ccc(F)cc4[C@H]3N2C1=O [compound 16, (4aS,13bR,14aS)-6-fluoro-2-methyl-1,4a,9,13b,14,14a-hexahydrodibenzo[3′,4′:6′,7′]-cyclohepta[1′,2′:4,5]pyrrolo[1,2-c]imidazol-3(2H)-one] | > 10000 | > 10000 | > 10000 | > 10000 |  |  |  | 
CN(C)C[C@H]1C[C@@H]2c3ccccc3Oc3ccc(F)cc3[C@H]2N1 [compound 17, [(2R,3aR,12bS)-11-fluoro-2,3,3a,12b-tetrahydro-lH-dibenzo[2,3 :6,7]oxepino[4,5-b]pyrrol-2-yl]-N,N-dimethylmethanamine] | 575 | 7.41 | 2340 | 501 |  |  |  | 
CN(C)C[C@H]1C[C@@H]2c3ccccc3Cc3ccc(F)cc3[C@H]2S1 [compound 23, [(2R,3aR,12bS)-11-fluoro-3,3a,8,12b-tetrahydro-2H-dibenzo[3,4:6,7]cyclohepta[1,2-b]thien-2-yl]-N,N-dimethylmethanamine] | 661 | 28.2 | 5010 | 229 |  |  |  | 
CN(C)C[C@@H]1C[C@@H]2c3ccccc3Cc3ccc(F)cc3[C@H]2[S@@+]1[O-] [compound 26, [(2S,3aR,12bS)-11-fluoro-1-oxido-3,3a,8,12b-tetrahydro-2H-dibenzo[3,4:6,7]-cyclohepta[1,2-b]thien-2-yl]-N,N-dimethylmethanamine] | > 10000 | > 10000 | > 10000 | > 10000 |  |  |  | 
CNC[C@H]1C[C@@H]2c3ccccc3Cc3ccc(F)cc3[C@H]2N1C=O [compound 38, (2R,3aR,12bS)-11-fluoro-2-[(methylamino)methyll]-3,3a,8,12b-tetrahydrodibenzo-[3,4:6,7]cyclohepta[1,2-b]pyrrole-1 (2H)-carbaldehyde] | 631 | 490 | 7080 | 186 |  |  |  | 
COCCN1[C@@H](CN(C)C)C[C@@H]2c3ccccc3Cc3ccc(F)cc3[C@H]21 [compound 40, [(2R,3aR,12bS)-11-Fluoro-1-(2-methoxyethyl)-1,2,3,3a,8,12b-hexahydrodibenzo-[3,4:6,7]-cyclohepta[1,2-b]pyrrol-2-yl]-N,N-dimethylmethanamine] | 372 | 479 | > 1000 | 263 |  |  |  | 
CNC[C@H]1CC[C@@H]2c3ccccc3Cc3ccc(F)cc3[C@H]2O1 [compound 46, [(2R,4aR,13bS)-12-fluoro-2,3,4,4a,9,13b-hexahydrodibenzo[3,4:6,7]cyclohepta-[1,2-b]pyran-2-yl]-N-methylmethanamine] | 13.8 | 398 | 6310 | 5.89 |  |  |  | 
